From patent publication US12344611B2, “Bridged cycloformylpyridine derivatives and uses thereof” (BroadenBio Co., Ltd., priority 2019, dated 2025)

Experiments:
FGFR4 = FGFR4 (Homo sapiens, UniProt P22455); test: In vitro biochemical kinase analysis of FGFR4 (HTRF KinEASE-TK); settings: HTRF kinase assay
Method: In Vitro Biochemical Kinase Analysis of FGFR4
FGFR4 protein kinase detection kit was purchased from Cisbio (HTRF KinEASE-TK kit). Prepare 1× kinase reaction buffer. Transfer 10 nL of a diluted compound to each well of a reaction plate (784075, Greiner) with an Echo 550, and seal the plate with sealing film. The reaction plate was centrifuged at 1000 g for 1 minute. Prepare 2×FGFR4 using 1× kinase reaction buffer, add 5 μL of kinase to each well of the reaction plate, seal the plate, centrifuge at 1000 g for 30 seconds, and incubate it at room temperature for 10 minutes. Prepare a mixture of 2×TK-substrate-biotin and ATP using 1× kinase reaction buffer, add 5 μL of TK-substrate-biotin/ATP mixture to the reaction plate, seal the plate with sealing film, centrifuge at 1000 g for 30 seconds, and react at room temperature for 40 minutes. Prepare 2×Sa-XL 665 and TK-antibody-Cryptate mixture using HTRF detection buffer, add 10 μL Sa-XL 665 and TK-antibody-Cryptate mixture to each well, centrifuge at 1000 g for 30 seconds, and react at room temperature for 1 hour. Envision 2104 read fluorescence signals at 615 nm (Cryptate) and at 665 nm (XL665). IC50 of the compound was calculated using the GraphPad nonlinear fitting formula.

Hep 3B hepatoma cells = test: In vitro cell proliferation assay (CellTiter-Glo, CTG), Hep 3B; assay type: cell-based, human; settings: Hep 3B cells
Method: (§1) In Vitro Cell Proliferation Assay of FGFR4 (CellTiter-Glo Luminescent Cell Viability Assay, CTG Assay)
(§2) Hep 3B hepatoma cells were purchased from Cell Resource Center of Peking Union College, and HuH-7 hepatoma cells were purchased from Shanghai Biological Technology Co., Ltd. enzyme research. The cells were prepared at a concentration of 3×10^4/mL, which was then added with 100 μL to each well of a 96-well transparent flat-bottom black-walled plate to make 3000 cells per well. Incubate overnight at 37° C. in 5% CO2 incubator. Dilute a compound and add it to the wells having the cells, then add cell culture medium to 200 μL per well. Put in CO2 incubator for incubation. After 96 hours, 100 μL of culture medium was removed from each well, 100 μL of CTG was added, and the 96-well plate was placed on a shaker for 10 minutes, and placed in the shade at room temperature for 45 minutes. Data was read out by SoftMax Pro i3X Microplate Reader of MD, analyzed by the software GraphPad Prism 5.0, and S-shaped dose-response curve was drawn, then the EC50 values were calculated.

HuH-7 hepatoma cells = test: In vitro cell proliferation assay (CellTiter-Glo, CTG), HuH-7; assay type: cell-based; settings: HuH-7 cells
Method: as §1, §2

Sequence of FGFR4 (P22455 22-802): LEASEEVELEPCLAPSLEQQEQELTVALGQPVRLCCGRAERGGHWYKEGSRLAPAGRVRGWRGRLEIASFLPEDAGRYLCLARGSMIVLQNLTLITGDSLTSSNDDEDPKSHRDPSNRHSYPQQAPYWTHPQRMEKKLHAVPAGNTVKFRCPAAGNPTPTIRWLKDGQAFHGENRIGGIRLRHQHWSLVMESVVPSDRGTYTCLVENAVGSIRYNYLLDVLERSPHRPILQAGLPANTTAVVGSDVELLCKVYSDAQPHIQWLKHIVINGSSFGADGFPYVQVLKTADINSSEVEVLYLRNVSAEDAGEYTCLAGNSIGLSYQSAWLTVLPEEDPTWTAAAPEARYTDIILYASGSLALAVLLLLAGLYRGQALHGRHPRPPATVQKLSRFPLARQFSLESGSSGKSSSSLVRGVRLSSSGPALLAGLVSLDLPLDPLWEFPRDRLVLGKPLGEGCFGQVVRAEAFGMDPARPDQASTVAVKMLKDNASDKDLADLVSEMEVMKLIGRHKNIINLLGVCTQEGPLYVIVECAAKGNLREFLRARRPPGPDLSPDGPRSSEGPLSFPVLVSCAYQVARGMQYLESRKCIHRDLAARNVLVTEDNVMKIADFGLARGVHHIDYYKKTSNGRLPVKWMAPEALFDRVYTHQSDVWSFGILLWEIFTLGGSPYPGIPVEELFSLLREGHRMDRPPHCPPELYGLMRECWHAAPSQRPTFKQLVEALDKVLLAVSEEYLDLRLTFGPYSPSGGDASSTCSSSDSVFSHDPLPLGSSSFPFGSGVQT

Compound	IC50 (FGFR4) [nM]	EC50 (Hep 3B hepatoma cells; Homo sapiens, Hep3B, 96 h) [nM]	EC50 (HuH-7 hepatoma cells; Homo sapiens, Huh-7, 96 h) [nM]	EC50 (Hep 3B hepatoma cells; 96 hours) [nM]	EC50 (HuH-7 hepatoma cells; 96 hours) [nM]
COCCNc1cc(NC(=O)N2c3nc(C=O)ccc3C3(NC(=O)CN4CCCC4)CC2C3)ncc1C#N [Compound 41]	3.4	11.9	13.3	–	–
COCCNc1cc(NC(=O)N2c3nc(C=O)c(CN(C)C(=O)CN(C)C)cc3C3(F)CC2C3)ncc1C#N [Compound 8]	2.6	11.8	28	–	–
COCCOc1cc(NC(=O)N2c3nc(C=O)c(CN4CCN(C)CC4=O)cc3C3CC2C3)ncc1C#N [Compound 25, N-(5-cyano-4-(methoxyethoxy)pyridin-2-yl)-7-formyl-6-((4-methyl-2-oxopiperazin-1-yl)methyl)-3,4-dihydro-2,4-methylene-1,8-naphthyridine-1(2H)-carboxamide]	2.5	19.3	25.4	–	–
COCCNc1cc(NC(=O)N2c3nc(C=O)ccc3C3(OCCOC)CC2C3)ncc1C#N [Compound 36, N-(5-cyano-4-((2-methoxyethyl)amino)pyridin-2-yl)-4-(2-methoxyethoxy)-7-formyl-3,4-dihydro-2,4-methylene-1,8-naphthyridine-1(2H)-carboxamide]	2.5	8.5	11.8	–	–
COCCNc1cc(NC(=O)N2c3nc(C=O)ccc3C3(NC(=O)N4CCOCC4)CC2C3)ncc1C#N [Compound 44, N-(5-cyano-4-((2-methoxyethyl)amino)pyridin-2-yl)-7-formyl-4-(morpholine-4-carboxamido)-3,4-dihydro-2,4-methylene-1,8-naphthyridine-1(2H)-carboxamide]	2.5	12.3	–	–	–
COC1CCCC1Nc1cc(NC(=O)N2c3nc(C=O)c(CN4CCN(C)CC4=O)cc3C3(F)CC2C3)ncc1C#N (single isomer, unassigned) [Compound 12-P2, N-(5-cyano-4-(((cis)-2-methoxycyclopentyl)amino)pyridin-2-yl)-4-fluoro-7-formyl-64(4-methyl-2-oxopiperazin-1-yl)methyl)-3,4-dihydro-2,4-methylene-1,8-naphthyridine-1(2H)-carboxamide]	10.9	–	–	39	95.2
N#Cc1cnc(NC(=O)N2c3nc(C=O)ccc3C3(F)CC2C3)cc1NC1CNC1 [Compound 23, N-(5-cyano-4-(azetidin-3-ylamino)pyridin-2-yl)-7-formyl-4-fluoro-3,4-dihydro-2,4-methylene-1,8-naphthyridine-1(2H)-carboxamide]	–	102	–	–	–
COCCNc1cc(NC(=O)N2c3nc(C=O)ccc3C3(N4CCN(C)CC4=O)CC2C3)ncc1C#N [Compound 43, N-(5-cyano-4-((2-methoxyethyl)amino)pyridin-2-yl)-7-formyl-4-(4-methyl-2-oxopiperazin-1-yl)-3,4-dihydro-2,4-methylene-1,8-naphthyridine-1(2H)-carboxamide]	3.1	6.5	–	–	–
COCCNc1cc(NC(=O)N2CCCc3cc(CN4CCN(C)CC4=O)c(C=O)nc32)ncc1C#N [Positive Control Compound, N-(5-cyano-4-((2-methoxyethyl)amino)pyridin-2-yl)-7-formyl-6-((4-methyl-2-oxopiperazin-1-yl)methyl)-3,4-dihydro-1,8-naphthyridine-1(2H)-carboxamide, reference compound]	–	15	52	–	–
COCCNc1cc(NC(=O)N2c3nc(C=O)ccc3C3(N(C)C(=O)c4cnn(C)c4)CC2C3)ncc1C#N [Compound 42]	3.2	7.2	–	–	–
COCCNc1cc(NC(=O)N2c3nc(C=O)ccc3C3(NC(=O)CO)CC2C3)ncc1C#N [Compound 47, N-(5-cyano-4-((2-methoxyethyl)amino)pyridin-2-yl)-4-(2-hydroxyacetamido)-7-formyl-3,4-dihydro-2,4-methylene-1,8-naphthyridine-1(2H)-carboxamide]	2.8	17.8	–	–	–

Continued, values first:

IC50 (FGFR4) [nM]	EC50 (Hep 3B hepatoma cells; Homo sapiens, Hep3B, 96 h) [nM]	EC50 (HuH-7 hepatoma cells; Homo sapiens, Huh-7, 96 h) [nM]	EC50 (Hep 3B hepatoma cells; 96 hours) [nM]	EC50 (HuH-7 hepatoma cells; 96 hours) [nM]	Compound
0.6	1.2	24	–	–	N#Cc1cnc(NC(=O)N2c3nc(C=O)ccc3C3(F)CC2C3)cc1N[C@@H]1CCC[C@H]1O (relative stereo) [Compound 20, N-(5-cyano-4-(((trans)-2-hydroxycyclopentyl)amino)pyridin-2-yl)-4-fluoro-7-formyl-3,4-dihydro-2,4-methylene-1,8-naphthyridine-1(2H)-carboxamide]
2.5	6.4	–	–	–	CCC(=O)NC12CC(C1)N(C(=O)Nc1cc(NCCOC)c(C#N)cn1)c1nc(C=O)ccc12 [Compound 37, N-(5-cyano-4-((2-methoxyethyl)amino)pyridin-2-yl)-4-propionamido-7-formyl-3,4-dihydro-2,4-methylene-1,8-naphthyridine-1(2H)-carboxamide]
1.1	7.2	6.9	–	–	COCCNc1cc(NC(=O)N2c3nc(C=O)c(CN4CCCCOC4=O)cc3C3CC2C3)ncc1C#N [Compound 28]
1.1	5.5	4.5	–	–	COCCNc1cc(NC(=O)N2c3nc(C=O)ccc3C3(NC(=O)C4CCN(C)CC4)CC2C3)ncc1C#N [Compound 31]
0.3	0.3	0.08	–	–	CO[C@@H]1CCC[C@H]1Nc1cc(NC(=O)N2c3nc(C=O)ccc3C3(NC(=O)CN(C)C)CC2C3)ncc1C#N (relative stereo) [Compound 33, N-(5-cyano-4-(((trans)-2-methoxycyclopentyl)amino)pyridin-2-yl)-4-(2-(dimethylamino)acetamido)-7-formyl-3,4-dihydro-2,4-methylene-1,8-naphthyridine-1(2H)-carboxamide]
1.8	27	49	–	–	COCCNc1cc(NC(=O)N2c3nc(C=O)c(CN4CCN(C)CC4=O)cc3C3(O)CC2C3)ncc1C#N [Compound 5, N-(5-cyano-4-((2-methoxyethyl)amino)pyridin-2-yl)-7-formyl-4-hydroxy-6-((4-methyl-2-oxopiperazin-1-yl)methyl)-3,4-dihydro-2,4-methylene-1,8-naphthyridine-1(2H)-carboxamide]
1.8	11.4	–	–	–	COCCNc1cc(NC(=O)N2c3nc(C=O)ccc3C3(OCC(=O)N4CCOCC4)CC2C3)ncc1C#N [Compound 45, N-(5-cyano-4-((2-methoxyethyl)amino)pyridin-2-yl)-4-(2-(morpholin-4-yl)-2-oxoethoxy)-7-formyl-3,4-dihydro-2,4-methylene-1,8-naphthyridine-1(2H)-carboxamide]
1.6	–	–	–	–	COCCNc1cc(NC(=O)N2c3nc(C=O)ccc3C3(NC(=O)c4ccccn4)CC2C3)ncc1C#N [Compound 48, N-(5-cyano-4-((2-methoxyethyl)amino)pyridin-2-yl)-4-(pyridine-2-carboxamido)-7-formyl-3,4-dihydro-2,4-methylene-1,8-naphthyridine-1(2H)-carboxamide]
1.2	10.7	–	–	–	COCCNc1cc(NC(=O)N2c3nc(C=O)ccc3C3(N(C)C4CCOC4)CC2C3)ncc1C#N (stereo not shown) [Compound 34, N-(5-cyano-4-((2-methoxyethyl)amino)pyridin-2-yl)-4-(methyl(tetrahydrofuran-3-yl)amino)-7-formyl-3,4-dihydro-2,4-methylene-1,8-naphthyridine-1(2H)-carboxamide]
1.6	–	–	–	–	COCCNc1cc(NC(=O)N2c3nc(C=O)ccc3C3(NC(=O)c4ccc[nH]4)CC2C3)ncc1C#N [Compound 49]
1.1	2.2	–	–	–	COCCNc1cc(NC(=O)N2c3nc(C=O)ccc3C3(OCCN4CCCC4)CC2C3)ncc1C#N [Compound 35, N-(5-cyano-4-((2-methoxyethyl)amino)pyridin-2-yl)-4-(2-(pyrrolidin-1-yl)ethoxy)-7-formyl-3,4-dihydro-2,4-methylene-1,8-naphthyridine-1(2H)-carboxamide]
1.4	–	0.8	–	–	COCCNc1cc(NC(=O)N2c3nc(C=O)ccc3C3(NC(=O)CN(C)C)CC2C3)ncc1C#N [Compound 30, N-(5-cyano-4-((2-methoxyethyl)amino)pyridin-2-yl)-4-(2-(dimethylamino)acetamido)-7-formyl-3,4-dihydro-2,4-methylene-1,8-naphthyridine-1(2H)-carboxamide]
0.7	–	0.6	–	–	CN1CCN(Cc2cc3c(nc2C=O)N(C(=O)Nc2cc(NC4CCCC4O)c(C#N)cn2)C2CC3(F)C2)C(=O)C1 (stereo not drawn) [Compound 17, N-(5-cyano-4-(((trans)-2-hydroxycyclopentyl)amino)pyridin-2-yl)-4-fluoro-7-formyl-6-((4-methyl-2-oxopiperazin-1-yl)methyl)-3,4-dihydro-2,4-methylene-1,8-naphthyridine-1(21-1)-carboxamide]
